In patent US10561676B2, “Method for treating cancer using dual antagonists of CXCR1 and CXCR2” (Syntrix Biosystems, Inc., priority 2018, dated 2020):

Tests used:
[1] = system: TRIA mouse model of melanoma; assay: TRIA mouse model of melanoma
[2] = system: B16-F10 syngeneic mouse model of melanoma; assay: B16-F10 syngeneic mouse model of melanoma; format: in vivo
Protocol: The B16-F10 mouse model is an established model of melanoma, Overwijk, 2001, CURR PROTOC IMMUNOL, Chapter 20: Units 20-21 (herein incorporated by reference), which was used to evaluate the effect of SX-682 alone and in combination with anti-PD1 antibody. B16-F10 mouse melanoma cells were cultured, then mice were injected with 0.5×10^6 B16-F10 cells on day 0, and treatment was initiated on day 18. Mice were treated with vehicle (control), SX-682 alone (50 mg/kg twice daily, oral), anti-PD-1 alone (100 μg twice weekly, i.p.), or SX-682 in combination with anti-PD-1 (N=4-5 per cohort). SX-682 was used as a spray dried dispersion (Formulation Example 1), and was administered to mice via oral gavage as a suspension in 0.5% aq. methylcellulose. […] Data and error bars are the mean±SE.

Sprague-Dawley rats = assay: Ozone rat model of pulmonary inflammation (neutrophil influx into BALF); format: in vivo
Protocol: SX-682 was assayed in an in vivo rat model of pulmonary inflammation. Activity in this model of pulmonary inflammation provides evidence that supports the use of SX-682 in the treatment of a number of pulmonary inflammatory diseases, including chronic obstructive pulmonary disease (COPD) and bronchopulmonary dysplasia (BPD). In this experiment, Sprague-Dawley rats (n=4 per cohort) were dosed intravenously only once at t=0 with either vehicle control (dimethylformamide/PEG400/saline, 40:40:20), positive inhibitor control (SX-576, 1 mg/kg) or the test compound (SX-682, 1 mg/kg). The rats were then placed in air (negative exposure group; vehicle control only) or 1 ppm ozone (positive exposure group; vehicle control, positive inhibitor control SX-576, and test compound SX-682) for 4 hours. The rats were then sacrificed at t=24 hours, and the bronchoalveolar lavage fluid (BALF) was collected. The cells were spun down, stained with Wright-Giemsa and counted. In the negative exposure group, no neutrophils were observed when stained. In the ozone exposed rats treated with vehicle however, there was a brisk influx of neutrophils of approximately 14,000 per mL of BALF (FIG. 5).

[3] = system: Ptenpc−/−p53pc−/−Smad4pc−/− mice; assay: Ptenpc−/−p53pc−/−Smad4pc−/− mouse model of castration resistant prostate cancer; format: in vivo; conditions: 4-6 weeks
Protocol: The genetically engineered Ptenpc−/−p53pc−/−Smad4pc−/− mouse is a prostate-specific PB promoter-driven (PB-Cre4) conditional triple knockout model (i.e., prostate-specific deletion of all three tumor suppressors, Pten, p53 and Smad4 occurs in the ‘prostate cancer’ or ‘pc’). […] SX-682 was used as a spray dried dispersion (Formulation Example 1), and was administered to mice via oral gavage as a suspension in 0.5% aq. methylcellulose. Treatment was continued for 4-6 weeks and prostate weights measured to determine tumor burden. […] Mean+SE.

[4] = system: isolated human neutrophils; assay: CXCL8-mediated intracellular calcium flux in isolated human neutrophils; format: cell-based; conditions: Neutrophil, 25 nM CXCL8, mean ±SE
Protocol: Cells were incubated for 30 min at 37° C. […] The test compound or DMSO (control) was added again at the same concentrations that were used during cell loading.
The maximum change in fluorescence, expressed in arbitrary units over baseline (Max-Min), was used to determine the CXCL8 response.

[5] = system: C3Tag mouse model of breast cancer; assay: C3Tag mouse model of breast cancer; format: in vivo
Text: The C31-T-antigen (C3Tag) mouse model is a validated model of human triple-negative basal cell breast cancer as shown by gene expression analysis (Maroulakou, 1994, Proc Natl Acad Sci, 91:11236-40, herein incorporated by reference). The expressed large T-antigen binds and inactivates the RB and p53 tumor suppressor genes, explaining why this model faithfully recapitulates human basal breast cancer, which also harbors RB and p53 inactivation. This model also has frequent K-Ras amplification and infrequent Ras mutations. Treatment regimens were started following tumor manifestation. SX-682 was given orally via medicated feed, at an approximate dose of 10 mg/day/mouse. CP was administered once weekly via intraperitoneal injection at a dose of 50 mg/kg.

[6] = SX-682 10 mg/day/mouse oral feed + CP 50 mg/kg weekly i.p.

## O=C(Nc1ccc(F)cc1)c1cnc(SCc2cc(OC(F)(F)F)ccc2B(O)O)nc1 [SX-682, 2-(2-boronic acid-5-trifluoromethoxy-benzylsulfanyl)-pyrimidine-5-carboxylic acid (4-fluoro-phenyl)-amide]
[1]; 10 mg/day/mouse oral feed
  tumor growth, SX-682 alone: significantly slowed tumor growth
[1]; [6]
  complete remission (zero tumor volume), SX-682 combination with CP: 5 of 11
[2]; 50 mg/kg twice daily, oral
  tumor growth, SX-682 monotherapy: significantly slowed tumor growth
[2]; SX-682 50 mg/kg twice daily oral + anti-PD-1 100 μg twice weekly i.p.
  tumor growth, SX-682 in combination with anti-PD-1: significantly better than either therapy alone
Sprague-Dawley rats; 1 mg/kg i.v. once, 1 ppm ozone 4 hours, BALF at 24 hours
  influx of neutrophils into the lungs (BALF) vs vehicle: significantly decreased the influx of neutrophils
Sprague-Dawley rats; single dose of 1 mg/kg i.v.
  time inhibition of neutrophil influx into BALF is sustained: 24 h
[3]; 50 mg/kg b.i.d. oral gavage
  prostate weight (tumor burden), SX-682 alone: inhibited prostate cancer
[3]; SX-682 50 mg/kg b.i.d. oral + anti-PD1 and anti-CTLA4 200 μg each 3×/week
  prostate weight (tumor burden), SX-682 plus ICB: significantly better than control or either treatment alone
[4]
  IC50: 0.055 ± 0.006 µM
[5]; 10 mg/day/mouse oral feed
  tumor growth vs untreated controls, SX-682 alone: significantly reduced tumor growth
[5]; [6]
  median survival, SX-682 combined with CP: > 60 days
  tumor growth vs untreated controls, SX-682 in combination with carboplatin: significantly reduced tumor growth
[5]; SX-682 10 mg/day/mouse oral, carboplatin 50 mg/kg weekly i.p., vehicle 18 days
  median survival, single agent: 28 days
